Results from PMC11357992, “Non-invasive mapping of systemic neutrophil dynamics upon cardiovascular injury” (Nature Cardiovascular Research, 2023).
Where “and” joins values, the source holds several entries; their conditions need not be identical. Identical values can stand only once. Where no end group is shown, it is not given here. carboxyfluorescein = N-terminal fluorescence label (CF)

Assays:
human neutrophils = assay: Migration of human neutrophils toward IL-8 (Boyden chamber); type: cell-based; conditions: 50 µl hNPPFCs, 1 h, 37 °C; 100 ng ml^−1 IL-8
Description: A total of 1 × 10^6 isolated human neutrophils were incubated with or without 50 µl ^hNPPFCs for 1 h at 37 °C in 1 ml DMEM. After washing with DMEM, 1 × 10^5 of these cells were placed in a Boyden chamber containing 200 µl DMEM. The lower part of the chamber contained 100 ng ml^−1 IL-8 in 1 ml DMEM. After 1 h in an incubator, the flow through was collected, and the number of neutrophils was counted by flow cytometry. Murine neutrophils were isolated from Matrigel–LPS plugs and stained for Ly6G. Afterward, cells were washed twice, and the number of neutrophils was determined by flow cytometry.

[1] = test system: neutrophils, monocytes and lymphocytes from STEMI blood samples; assay: Uptake of hNPPFCs/ConPFCs by immune cells from patients with STEMI, flow cytometry; type: cell-based, human
Description: In total, blood samples from 17 patients with STEMI were used (5 female, 12 male; aged 66.9 ± 13.6 years; troponin T, 3,398 ± 3,520 ng l^−1; creatine kinase, 933.4 ± 685.8 U l^−1; lactate dehydrogenase, 547.8 ± 259.9 U l^−1). Samples were analyzed 24 h after MI. Samples from the oral cavity of patients with pericoronitis (n = 6; 4 female, 2 male; 34.1 ± 21.7 years) and explanted human hearts (n = 3; 1 female, 2 male; 41.6 ± 18.2 years) were processed directly after surgery.
Blood was collected from the vena brachialis, and erythrocytes were lysed as described above. After 10 min of incubation, samples were centrifuged at 350g for 10 min at 20 °C. For isolation of a purified neutrophil fraction, density gradient centrifugation was performed. Five milliliters of Ficoll 1.077 (Sigma-Aldrich) was layered on 5 ml Ficoll 1.119 (Sigma-Aldrich), and 20 ml of whole blood diluted 1:2 with PBS was carefully layered on the Ficoll 1.077. Samples were centrifuged at 350g for 20 min with low acceleration and brake. The neutrophil layer was isolated by careful aspiration and washed with PBS. Isolated cells were resuspended in MACS buffer.
A total of 1 × 10^6 cells were incubated with 10 µl of the emulsion over a period of 80 min at 37 °C. At distinct time points, 50 µl of the samples were transferred into 2 ml of ice-cold MACS buffer and analyzed for rhodamine fluorescence by flow cytometry.

[2] = test system: CD177+ and CD177- neutrophils; assay: hNPPFC uptake by CD177+ and CD177- neutrophil subpopulations, flow cytometry; type: cell-based, human; conditions: latter = CD177+
Description: Fig. 5 Specific targeting of human neutrophils by ^hNPPFCs. a, Uptake of ^hNPPFCs (red) or ^ConPFCs (gray) by human lymphocytes, monocytes or neutrophils over time as determined by flow cytometry. **P < 0.01. b, For MRI analysis, human immune cells were incubated with ^hNPPFCs (top row) or ^ConPFCs (bottom row). After several washing steps, cells were purified by density gradient centrifugation and analyzed by MRI. First column, ^1H MR image of the centrifugation tube with the cell layer (arrow) on top of the dark Percoll layer; second column, ^19F MR image of the same area; third column, merge of both datasets. Quantification of the ^19F data is shown on the right. c, hNP was conjugated to the pH-sensitive dye pHrodo, incubated with neutrophils at 4 °C (blue) and 37 °C (red) and analyzed by flow cytometry. d, Confocal microscopy of neutrophils incubated with ^hNPPFCs (top) or ^ConPFCs (bottom). Fluorescence signals of PFCs (rhodamine; Rho) as well as ligands (carboxyfluorescein; CF) were recorded, and nuclei were counterstained with 4′,6-diamidino-2-phenylindole (DAPI) (blue). […] At distinct time points, uptake of ^hNPPFCs was determined by flow cytometry. f, Human blood immune cells were incubated with ^hNPPFCs followed by staining for CD177 and flow cytometry. […]

“hNPPFCs: PEGylated rhodamine-labeled perfluorocarbon nanoemulsion coupled with human neutrophil-specific peptide hNP (carboxyfluorescein-DLVTSKLQVGGGC; also: C-terminal Cys coupled via maleimide-PEG2000-DSPE to rhodamine-labelled perfluorocarbon nanoemulsion)” was tested, and the “migration of human neutrophils toward IL-8” value (human neutrophils) was “no evidence for any changes in their chemotactic properties”, the “uptake by neutrophils, STEMI - hNPPFCs, raw data” value ([1]; STEMI patients, time 0, single samples #1-#5) was 84.1 and 69.4 and 87.5 and 76.7 and 84.9 and the “cellular uptake by neutrophils from patients with STEMI versus healthy volunteers” value ([1]; blood obtained within the first 24 h after MI, flow cytometry and 19F MRI) was “substantially stronger cellular uptake”. The “labeling of CD177− versus CD177+ neutrophils” value [2] was “only the latter population could be labeled”.
